Experimental data taken from patent publication US20220152203A1, “BROAD-BASED THERAPEUTIC FOR INACTIVATING COVID-19 AND OTHER VIRAL PATHOGENS USING CHEMILUMINESCENCE-ACTIVATED COMPOUNDS ENCAPSULATED IN NANOPARTICLES” (priority 2020, published 2022).
≈ marks a conversion by molar mass, not a printed value. Where “and” joins values, the source holds several entries; their conditions need not be identical. Equal entries are not always repeated. Where two headings read alike, the source gives them in different places.

Assays:
[1] = cited from earlier work
[2] = tested on: HIV-1ΔtatΔrev; type: cell-based
[3] = −20° C. in the absence of light and oxygen; cited from earlier work
[4] = tested on: HIV; conditions: hypericin with “molecular flashlight”, cell culture in vitro; cited from earlier work

SMILES | solubility in DMSO ([1]; DMSO) [mg/mL] | solubility in methanol ([1]; methanol) [mg/mL] | solubility ([1]; DMSO) | HIV p24 concentration as a function of time after infection ([2]; day 0 (inoculum), hypericin exposed to the light (positive control)) [ng/mL] | HIV p24 concentration as a function of time after infection ([2]; day 0 (inoculum), not exposed to light, hypericin 5 μmol, 2 h 37° C., replicates 1-3) [ng/mL] | HIV p24 concentration as a function of time after infection ([2]; day 3, hypericin exposed to the light (positive control)) [ng/mL] | HIV p24 concentration as a function of time after infection ([2]; day 3, not exposed to light, hypericin 5 μmol, 2 h 37° C., replicates 1-3) [ng/mL] | HIV p24 concentration as a function of time after infection ([2]; day 6, hypericin exposed to the light (positive control)) [ng/mL] | HIV p24 concentration as a function of time after infection ([2]; day 6, not exposed to light, hypericin 5 μmol, 2 h 37° C., replicates 1-3, listed as Hyp only) | HIV p24 concentration as a function of time after infection ([2]; day 9, hypericin exposed to the light (positive control)) [ng/mL] | HIV p24 concentration as a function of time after infection ([2]; day 9, not exposed to light, hypericin 5 μmol, 2 h 37° C., replicates 1-3, listed as Hyp only) | HIV p24 concentration as a function of time after infection ([2]; day 13, hypericin exposed to the light (positive control)) [ng/mL] | HIV p24 concentration as a function of time after infection ([2]; day 13, not exposed to light, hypericin 5 μmol, 2 h 37° C., replicates 1-3, listed as Hyp only) | HIV p24 concentration as a function of time after infection ([2]; day 16, hypericin exposed to the light (positive control)) [ng/mL] | HIV p24 concentration as a function of time after infection ([2]; day 16, not exposed to light, hypericin 5 μmol, 2 h 37° C., replicates 1-3, listed as Hyp only) | HIV p24 concentration as a function of time after infection ([2]; day 20, hypericin exposed to the light (positive control)) [ng/mL] | HIV p24 concentration as a function of time after infection ([2]; day 20, not exposed to light, hypericin 5 μmol, 2 h 37° C., replicates 1-3, listed as Hyp only) | storage stability [3] | effect on host cells [4]
O=C(O)C1CSC(c2nc3ccc(O)cc3s2)=N1 [D-luciferin, 4,5-Dihydro-2-(6-hydroxy-2-benzothiazolyl)-4-thiazolecarboxylic acid] | 50 (≈ 178 mM) | 10 (≈ 35.7 mM) |  |  |  |  |  |  |  |  |  |  |  |  |  |  |  |  | 
Cc1cc(O)c2c(=O)c3c(O)cc(O)c4c5c(O)cc(O)c6c(=O)c7c(O)cc(C)c8c1c2c(c34)c(c78)c65 [hypericin, Hypericin] |  |  | soluble in DMSO | 1 | 1 | 0.05 | 0.05 | 0.05 | 19.34 ng/mL and 12.13 ng/mL and 11 ng/mL | 3 | 1,055 ng/ml and 831 ng/ml and 1,120 ng/ml | 2.9 | 1,985 ng/ml and 3,501 ng/ml and 3,270 ng/ml | 0.05 | 1,870 ng/ml and 1543 ng/ml and 923 ng/ml | 6.6 | 1,763 ng/ml and 2,789 ng/ml and 2,775 ng/ml | stable | without harming these cells
